How the values were obtained:
[1] = target: T1, amorpha-4,11-diene synthase (ADS) (Artemisia annua, UniProt Q9AR04); test: GC-MS product analysis and malachite green assay; assay type: biochemical; conditions: 5 mM MgCl2, pH 7.0; numbering likely that of A. annua BFS
T1 construct: gene AMS1; recombinant

[2] = target: T2, (E)-β-farnesene synthase (BFS), A. annua BFS (Artemisia annua, UniProt Q9FXY7); conditions: 5 mM MgCl2, pH 7.0, 30 °C, inorganic pyrophosphatase coupled
T2 construct: gene CASC125
Excerpt: (§1) malachite green assay, steady-state kinetics on (E)-β-farnesene synthase (BFS), A. annua BFS

[3] = target: T3, (E)-β-farnesene synthase (BFS), A. annua BFS (Artemisia annua, UniProt Q9FXY7, Y433A/V470G, form not given); conditions: 5 mM MgCl2, pH 7.0, 30 °C, inorganic pyrophosphatase coupled
T3 construct: gene CASC125
Excerpt: as §1

[4] = target: T4, (E)-β-farnesene synthase (BFS), A. annua BFS (Artemisia annua, UniProt Q9FXY7, Y305L/Y433A, form not given); conditions: 5 mM MgCl2, pH 7.0, 30 °C, inorganic pyrophosphatase coupled
T4 construct: gene CASC125
Excerpt: as §1

[5] = target: T5, (E)-β-farnesene synthase (BFS), A. annua BFS (Artemisia annua, UniProt Q9FXY7, Y423L/V470G, form not given); conditions: 5 mM MgCl2, pH 7.0, 30 °C, inorganic pyrophosphatase coupled
T5 construct: gene CASC125
Excerpt: as §1

T4 sequence (Q9FXY7 whole entry Y305L/Y433A, form open): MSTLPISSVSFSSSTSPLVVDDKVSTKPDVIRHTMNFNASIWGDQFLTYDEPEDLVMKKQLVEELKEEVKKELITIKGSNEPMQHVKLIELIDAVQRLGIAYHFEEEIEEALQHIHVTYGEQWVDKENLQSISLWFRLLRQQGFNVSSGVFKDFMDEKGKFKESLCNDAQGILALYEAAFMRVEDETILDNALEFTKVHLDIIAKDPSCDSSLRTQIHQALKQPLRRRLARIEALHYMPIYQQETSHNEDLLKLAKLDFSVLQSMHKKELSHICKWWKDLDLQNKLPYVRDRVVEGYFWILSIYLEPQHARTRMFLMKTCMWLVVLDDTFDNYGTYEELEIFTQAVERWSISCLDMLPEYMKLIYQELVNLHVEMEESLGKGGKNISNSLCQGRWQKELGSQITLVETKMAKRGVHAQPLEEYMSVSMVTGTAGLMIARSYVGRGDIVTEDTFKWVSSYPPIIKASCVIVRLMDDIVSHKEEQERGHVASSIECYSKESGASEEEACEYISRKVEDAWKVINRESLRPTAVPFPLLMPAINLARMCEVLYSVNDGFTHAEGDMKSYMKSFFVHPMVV
T5 sequence (Q9FXY7 whole entry Y423L/V470G, form open): as the sequence (Q9FXY7 whole entry Y305L/Y433A, form open) above, with L305Y, Y423L, A433Y, V470G counted along it
T1 sequence (Q9AR04 whole entry): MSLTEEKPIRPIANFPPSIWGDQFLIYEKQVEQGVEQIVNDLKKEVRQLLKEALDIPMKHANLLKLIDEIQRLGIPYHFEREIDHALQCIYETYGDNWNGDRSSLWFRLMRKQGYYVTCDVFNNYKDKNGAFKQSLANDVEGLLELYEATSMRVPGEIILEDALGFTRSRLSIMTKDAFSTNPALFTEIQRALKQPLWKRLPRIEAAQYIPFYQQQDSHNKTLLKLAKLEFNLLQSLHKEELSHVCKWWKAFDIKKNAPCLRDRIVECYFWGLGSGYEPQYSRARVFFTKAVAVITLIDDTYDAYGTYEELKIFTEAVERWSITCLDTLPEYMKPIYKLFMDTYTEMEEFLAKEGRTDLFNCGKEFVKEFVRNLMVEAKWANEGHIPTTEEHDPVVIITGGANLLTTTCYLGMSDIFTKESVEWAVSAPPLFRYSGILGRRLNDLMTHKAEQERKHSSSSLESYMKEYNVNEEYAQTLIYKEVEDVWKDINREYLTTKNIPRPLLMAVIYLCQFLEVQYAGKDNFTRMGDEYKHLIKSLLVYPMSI
T3 sequence (Q9FXY7 whole entry Y433A/V470G, form open): as the sequence (Q9FXY7 whole entry Y305L/Y433A, form open) above, with L305Y, V470G counted along it
T2 sequence (Q9FXY7 whole entry): as the sequence (Q9FXY7 whole entry Y305L/Y433A, form open) above, with L305Y, A433Y counted along it

| Structure (SMILES) | GC-MS product analysis and malachite green assay [1] | Km [2] [µM] | Km [3] [µM] | Km [4] [µM] | Km [5] [µM] |
| --- | --- | --- | --- | --- | --- |
| CC(C)=CCC/C(C)=C/CC/C(C)=C/COP(=O)(O)OP(=O)(O)O [FPP, farnesyl pyrophosphate] | incorporating the L402Y mutation into ADS induced a broadening of cyclization products |  |  |  |  |
| CC(C)=CCC/C(C)=C/CC/C(C)=C/CO[P@@](=O)(O)OP(=O)(O)O (stereo in doubt) [FPP, farnesyl pyrophosphate] |  | 10.6 | 4.27 | 5.22 | 5.99 |

— publication PMC4327562, “Emergence of terpene cyclization in Artemisia annua” (Nature Communications, 2015)
